Experimental findings from patent US20250002863A1, “METHOD OF GENERATING FUNCTIONAL ISLETS FROM PLURIPOTENT STEM CELLS” (HANGZHOU REPROGENIX BIOSCIENCE, INC., priority 2021, published 2025) are described below.

The structures appear in SMILES notation.

For the assay, the system named is pancreatic endocrine progenitors. As to the kind of experiment: Addition of small molecules ISX9 and Wnt-C59 at Stage 5, flow cytometry of β cell marker expression in Stage 6 aggregates. Particulars: added at Stage 5 of the hPSC differentiation protocol (10 μM ISX9, 100 nM Wnt-C59). It counts as cell-based, human. An excerpt: FIG. 5 illustrates establishment of efficient hPSC-islet generation protocol and characterization of hPSC-islets. a, Flow cytometry analysis comparing differentiation efficiencies between planar culture and suspension culture at various stages of the protocol in terms of pancreatic progenitor markers at the end of Stage 4 and β cell markers at the end of Stage 6 (n=5). b, Flow cytometry of β cell marker expression in Stage 6 aggregates without and with addition of small molecules ISX9 and Wnt-C59, individually or in combination at Stage 5, detected at S6D2 (n=4). c, Continuous stage-wise tracking of pancreatic progenitor, endocrine progenitor, and β cell markers by flow cytometry throughout the differentiation protocol (n=3). (d-h) In vitro characterization of stage 6 islet-like aggregates. d, Representative immunostaining of key β cell transcription factors in sectioned Stage 6 aggregates. Scale bar, 50 μm. e, C-peptide secretion of Stage 6 aggregates (n=3) and primary human islets in static glucose stimulation assay (n=2). Glucose stimulation index as indicated above bars. f, Insulin secretion of hPSC-islets in dynamic perifusion assay. g, Electron microscopy depicting ultrastructure of Stage 6 β cell and insulin granules. Scale bar, 2.5 μm. h, Glucagon secretion by hPSC-islets in static glucose stimulation assay. […]
For orientation: In flow cytometry, cells or beads pass a laser one at a time.

As to `O=C(NC1CC1)c1cc(-c2cccs2)on1` [ISX9, Isoxazole 9], the “differentiation of pancreatic progenitors / terminal differentiation of pancreatic endocrine progenitors” value is listed as “promoted the terminal differentiation of pancreatic endocrine progenitors”.
